Reference: patent US10537557B2, “Methods of treating respiratory disorders” (CASE WESTERN RESERVE UNIVERSITY, priority 2016, dated 2020)

Legend:
hyperoxia-exposed mice = assay: Lung mechanics: methacholine challenge after neonatal hyperoxia (BPD model), flexiVent Rrs; assay type: in vivo, C57BL/6 mice; conditions: for Rrs in response to aerosolized methacholine challenge (airway hyperreactivity): 3-week-old mice raised in hyperoxia (60%), compared with room air controls; for Rrs increase in hyperoxia, methacholine dose response (FIG. 5A-B): at 3 weeks and after room air recovery at 6 weeks of age; for Rrs in response to aerosolized methacholine challenge (airway hyperresponsiveness): six-week-old mice, 3 weeks neonatal hyperoxia then room air recovery
Procedure: Animal protocols were approved by the Institutional Animal Care and Use Committee at Case Western Reserve University (Cleveland, Ohio). Timed pregnant C57BL/6 mice (Charles River Laboratories, Wilmington, Mass.) were maintained on 12-hour light-dark cycles with ad libitum standard food and water. Within 24 hours of birth, litters were pooled and randomized into exposure groups. Paired with a nursing dam, pups were raised in 60% oxygen or room air (21%) for 21 days. Hyperoxia-exposed animals were housed in standard cages placed in a 38-L Plexiglas chamber with a continuous flow of blended oxygen (2 L/min). Oxygen concentrations were monitored twice daily via an oxygen analyzer (miniOX I; MSA Medical, Gurnee, Ill.). To control for oxygen exposures, nursing dams were rotated between paired litters during weekly cage changes. Ventilator studies were conducted and/or tissue harvested within 24 hours of removal from hyperoxia at 3 weeks. A subgroup of animals was returned to room air following 3 weeks of initial hyperoxia exposure and subsequently recovered to 6 weeks of age for adult lung mechanic and GSNOR activity studies.
N6022 is a selective small molecule reversible inhibitor of GSNOR. Powdered N6022 (Nivalis Therapeutics, Boulder, Colo., purchased through MedChem Express, Monmouth Junction, N.J.) was reconstituted in sterile PBS (pH 7.4) and administered to hyperoxia exposed mice as a single 1 mg/kg i.p. injection the day prior to testing lung mechanics.
Under general anesthesia (i.p. ketamine/xylazine), mice were placed supine on a heated surgical table, tracheostomized, and ventilated via a 19-gauge blunt-tip cannula with a commercial rodent ventilator (flexiVent; SCIREQ, Montreal, Canada). Animals were paralyzed (i.p. pancuronium bromide; Sigma-Aldrich) and ventilated at default settings: tidal volume of 10 mL/kg, a rate of 150 breaths/min, a positive end expiratory pressure of 3 cm H2O, and a FiO2 of 50%. Following two recruitment deep inflations of sustained inspiration up to a pressure of 30 cm H2O for 3 seconds, 10 mM GSNO or saline vehicle was aerosolized over 10 seconds using an ultrasonic nebulizer (Aeroneb; SCIREQ) diverted into the ventilator's inspiratory flow. Inhaled GSNO concentration was chosen based upon the published studies in ventilated guinea pigs and human trials in cystic fibrosis. After 5 minutes had elapsed, two recruitment deep inflations were again delivered, and increasing methacholine doses of 0, 12.5, 25, 50, 100, and 200 mg/mL were similarly aerosolized over 10 seconds to generate a dose-response curve. Using computer software (flexiWare 5.1, Version 7.2, SCIREQ), five measurements of respiratory system resistance (Rrs) were calculated by a 2.5 Hz single-frequency forced oscillation maneuver (Snapshot 150), and an average was reported for each methacholine dose. Respiratory mechanics were measured in both 3-week-old mice immediately following sustained hyperoxia exposure and separate 6-week-old mice that were recovered in room air following the initial 3 weeks of hyperoxia exposure.
Data are expressed as means±S.E.M. A minimum of two litters or experiments was used for each study; n represent individual animals or cell transfections. Data containing two groups were first tested for normality and variance and then analyzed by two sample student t test, Welch's t test, or Mann-Whitney U test, as appropriate. For multiple comparisons, analysis of variance with Tukey-Kramer post hoc test was used. Alterations in airway reactivity with increasing doses of methacholine were compared by two-way analysis of variance repeated-measures analysis with Tukey-Kramer post hoc comparisons using a fixed-sequence method from highest to lowest methacholine dose. P, 0.05 was considered statistically significant.

[1] = Gaston et al. 1994; cited from earlier work
room air-exposed mice = assay: Lung mechanics: methacholine challenge in room air-exposed mice, flexiVent Rrs; assay type: in vivo, C57BL/6 mice; conditions: both ages (3 and 6 weeks), GSNO pretreatment, data not shown
Procedure: Animal protocols were approved by the Institutional Animal Care and Use Committee at Case Western Reserve University (Cleveland, Ohio). Timed pregnant C57BL/6 mice (Charles River Laboratories, Wilmington, Mass.) were maintained on 12-hour light-dark cycles with ad libitum standard food and water. Within 24 hours of birth, litters were pooled and randomized into exposure groups. Paired with a nursing dam, pups were raised in 60% oxygen or room air (21%) for 21 days. Hyperoxia-exposed animals were housed in standard cages placed in a 38-L Plexiglas chamber with a continuous flow of blended oxygen (2 L/min). Oxygen concentrations were monitored twice daily via an oxygen analyzer (miniOX I; MSA Medical, Gurnee, Ill.). […]
Under general anesthesia (i.p. ketamine/xylazine), mice were placed supine on a heated surgical table, tracheostomized, and ventilated via a 19-gauge blunt-tip cannula with a commercial rodent ventilator (flexiVent; SCIREQ, Montreal, Canada). […] Using computer software (flexiWare 5.1, Version 7.2, SCIREQ), five measurements of respiratory system resistance (Rrs) were calculated by a 2.5 Hz single-frequency forced oscillation maneuver (Snapshot 150), and an average was reported for each methacholine dose. […]
Data are expressed as means±S.E.M. A minimum of two litters or experiments was used for each study; n represent individual animals or cell transfections. […]

Compound | Rrs in response to aerosolized methacholine challenge (airway hyperreactivity) (hyperoxia-exposed mice; pretreatment 10 mM GSNO aerosol over 10 seconds) | Rrs increase in hyperoxia, methacholine dose response (FIG. 5A-B) (hyperoxia-exposed mice; 10 mM GSNO aerosol) | Rrs in response to aerosolized methacholine challenge (airway hyperresponsiveness) (hyperoxia-exposed mice; pretreatment 10 mM GSNO aerosol) | bronchodilator potency relative to theophylline [1] [fold] | Rrs compared with room air saline-treated controls (room air-exposed mice) | Rrs in response to aerosolized methacholine challenge (airway hyperreactivity) (hyperoxia-exposed mice; single 1 mg/kg i.p. injection the day prior) | Rrs increase in hyperoxia, methacholine dose response (FIG. 5A-B) (hyperoxia-exposed mice; 1 mg/kg N6022 injection) | Rrs in response to aerosolized methacholine challenge (airway hyperresponsiveness) (hyperoxia-exposed mice; 1 mg/kg i.p. injection)
N[C@@H](CCC(=O)N[C@@H](CSN=O)C(=O)NCC(=O)O)C(=O)O [GSNO, S-nitrosoglutathione] | attenuated these changes, such that this group was no longer significantly different from room air controls, except at the highest methacholine dose (200 mg/mL) | attenuated these changes | remained effective in attenuating the hyperoxia induced airway hyperresponsiveness | 100 | did not significantly change Rrs | – | – | –
Cc1cc(C(N)=O)ccc1-n1c(CCC(=O)O)ccc1-c1ccc(-n2ccnc2)cc1 [N6022, reference compound] | – | – | – | – | – | attenuated these changes as well, such that this group was no longer significantly different from room air controls at all methacholine doses | attenuated these changes | remained effective in attenuating the hyperoxia induced airway hyperresponsiveness
